{
  "source": "patent USRE48461E1",
  "about": "“Modulation of androgen receptor expression” (Ionis Pharmaceuticals, Inc., priority 2012, dated 2021)",
  "format_in_all_cases": "cell-based, human",
  "key": {"[1]": {"system": "cleaved PARP", "assay": "Cleaved PARP western blot in VCaP cells"}, "[2]": {"system": "TMPRSS2 mRNA", "assay": "TMPRSS2 mRNA levels in LMR20 cells", "settings": "with or without DHT/R1881", "protocol": "LMR20 cells were plated at 1,500 cells per well in phenol red-free medium with CSS."}, "[3]": {"system": "22RV1 cells", "assay": "22RV1 cell proliferation (Example 32)", "settings": "5 days; for Proliferation (% untreated control): 22RV1 cells, complete medium", "protocol": "(§1) After a treatment period of 5 days in complete medium, the proliferative capacity of the cancer cells was measured with using CellTiter 96® AQueous One or CellTiter-Glo® Solution Cell Proliferation kit (Promega), following the manufacturer's instructions. […] Treatment with ISIS oligonucleotides in CSS+DHT medium reduced the proliferative capacity to a greater extent than treatment with MVD-3100. The proliferative capacity of cells cultured in CSS medium without DHT is 12% of untreated control levels."}, "[4]": {"system": "PSA mRNA", "assay": "PSA expression in C4-2 cells", "settings": "48 hrs; for Percent inhibition of PSA expression: C4-2 cells, CSS + DHT medium", "protocol": "Cells were plated at 1,000 cells per well. […] After an incubation period of 48 hrs, RNA levels of AR, PSA and TMPRSS2 were measured.\nCells were plated at 2,000 cells per well and cultured in CSS media with 1 nM DHT. […] After an incubation period of 48 hrs, RNA levels of AR, PSA and TMPRSS2 were measured."}, "[5]": {"system": "PSA mRNA", "assay": "PSA expression in VCaP cells", "settings": "RNAiMax, 48 hrs", "protocol": "Cells were plated at 10,000 cells per well. […] After an incubation period of 48 hrs, RNA levels of full length AR, the V7 variant, PSA and TMPRSS2 were measured.\nAfter an incubation period of 48 hrs, RNA levels of full length AR, the V7 variant, PSA and TMPRSS2 were measured. The data is presented in Tables 108 expressed as percent expression of gene levels compared to the untreated control.\nCells were plated at 15,000 cells per well and cultured in CSS media for 16 hours. […] After 4 hrs, 1 nM DHT was added. […] After an incubation period of 48 hrs, RNA levels of AR, PSA and TMPRSS2 were measured."}, "[6]": {"system": "TMPRSS2 mRNA", "assay": "TMPRSS2 expression in LNCaP cells (complete, CSS+DHT medium)", "settings": "for Percent inhibition of TMPRSS2 expression in LNCaP cells cultured in CSS + DHT medium: CSS + DHT (1 nM) medium, 48 hrs; for Percent inhibition of TMPRSS2 expression in LNCaP cells cultured in complete medium: 48 hours", "protocol": "Cells were plated at 1,000 cells per well. […] ISIS 549148 was included as a negative control. […] After an incubation period of 48 hours, RNA levels of AR, PSA and TMPRSS2 were measured.\nCells were plated at 2,000 cells per well and cultured in phenol red-free RPMI supplemented with 5% charcoal stripped serum (Gibco) media for 16 hours. […] ISIS 549148 was included as a negative control. […] After an incubation period of 4 hrs, DHT was added to the medium to a final concentration of 1 nM as indicated. RNAs were collected 48 hrs later and levels of AR, PSA and TMPRSS2 were measured. In the absence of DHT, AR expression in LNCaP cells was 95%, PSA expression was 7% and TMPRSS2 expression was 24% compared to the untreated control."}, "[7]": {"system": "VCaP cells", "assay": "VCaP cell proliferation", "settings": "5 days; for Proliferation (% untreated control): VCaP cells", "protocol": "as §1, with “complete medium or CSS+1 nM DHT” for “complete”"}, "[8]": {"system": "22RV1 cells", "assay": "22RV1 cell proliferation with/without DHT (MTT)", "settings": "5 days; for Percent inhibition of 22RV1 cell proliferation: RNAiMAX", "protocol": "22RV1cells were plated at 1,500 cells per well. […] Separate sets of cells, also treated with each of the antisense oligonucleotides, were treated with DHT added on day 1 at a final concentration of 1 nM. After a treatment period of 5 days, the proliferative ability of the cancer cells was measured using the standard MTT assay. Results are presented in Table 69 as percent inhibition of proliferation, relative to non-treated cells."}},
  "data": [
    {"sequence": "TGATTTAATGGTTGCA [ISIS 569236] (cEt/MOE gapmer chemistry, further chemistry not given here) [targets intron 1]", "values": [
      {"measurement": "cleaved PARP levels (western blot)", "setting": "[1]", "value": "increased in a dose-dependent manner"},
      {"measurement": "TMPRSS2 mRNA levels in LMR20 cells", "setting": "[2]", "value": "reduced PSA levels and TMPRSS2 more extensively than the LNA gapmer ISIS 554221 or MDV3100"},
      {"measurement": "Proliferation (% untreated control)", "setting": "[3]; 1.34 nM", "value": 92, "unit": "% untreated control"},
      {"measurement": "Proliferation (% untreated control)", "setting": "[3]; 4.0 nM", "value": 53, "unit": "% untreated control"},
      {"measurement": "Proliferation (% untreated control)", "setting": "[3]; 13.4 nM", "value": 20, "unit": "% untreated control"},
      {"measurement": "Proliferation (% untreated control)", "setting": "[3]; 40 nM", "value": 7, "unit": "% untreated control"},
      {"measurement": "proliferation of 22RV1 cells", "setting": "[3]", "value": "reduced proliferation of the cells in a dose dependent compared to the control"},
      {"measurement": "Percent inhibition of PSA expression", "setting": "[4]; 0.04 μM", "value": 0, "unit": "%"},
      {"measurement": "Percent inhibition of PSA expression", "setting": "[4]; 0.2 μM", "value": 4, "unit": "%"},
      {"measurement": "Percent inhibition of PSA expression", "setting": "[4]; 1 μM", "value": 57, "unit": "%"},
      {"measurement": "Percent inhibition of PSA expression", "setting": "[4]; 5.0 μM", "value": 64, "unit": "%"},
      {"measurement": "Percent inhibition of PSA expression in C4-2 cells cultured in complete medium", "setting": "[4]; 0.04 μM", "value": 35, "unit": "%"},
      {"measurement": "Percent inhibition of PSA expression in C4-2 cells cultured in complete medium", "setting": "[4]; 0.2 μM", "value": 62, "unit": "%"},
      {"measurement": "Percent inhibition of PSA expression in C4-2 cells cultured in complete medium", "setting": "[4]; 1 μM", "value": 83, "unit": "%"},
      {"measurement": "Percent inhibition of PSA expression in C4-2 cells cultured in complete medium", "setting": "[4]; 5.0 μM", "value": 88, "unit": "%"},
      {"measurement": "Percent inhibition of PSA expression", "setting": "[5]; CSS + DHT medium, 1.34 nM", "value": 8, "unit": "%"},
      {"measurement": "Percent inhibition of PSA expression", "setting": "[5]; CSS + DHT medium, 4.0 nM", "value": 25, "unit": "%"},
      {"measurement": "Percent inhibition of PSA expression", "setting": "[5]; CSS + DHT medium, 13.4 nM", "value": 62, "unit": "%"},
      {"measurement": "Percent inhibition of PSA expression", "setting": "[5]; CSS + DHT medium, 40 nM", "value": 74, "unit": "%"},
      {"measurement": "Percent inhibition of PSA expression", "setting": "[5]; complete medium, 1.34 nM", "value": 7, "unit": "%"},
      {"measurement": "Percent inhibition of PSA expression", "setting": "[5]; complete medium, 4.0 nM", "value": 19, "unit": "%"},
      {"measurement": "Percent inhibition of PSA expression", "setting": "[5]; complete medium, 13.4 nM", "value": 40, "unit": "%"},
      {"measurement": "Percent inhibition of PSA expression", "setting": "[5]; complete medium, 40 nM", "value": 52, "unit": "%"},
      {"measurement": "Percent inhibition of TMPRSS2 expression in LNCaP cells cultured in CSS + DHT medium", "setting": "[6]; 0.04 μM", "value": 6, "unit": "%"},
      {"measurement": "Percent inhibition of TMPRSS2 expression in LNCaP cells cultured in CSS + DHT medium", "setting": "[6]; 0.2 μM", "value": 8, "unit": "%"},
      {"measurement": "Percent inhibition of TMPRSS2 expression in LNCaP cells cultured in CSS + DHT medium", "setting": "[6]; 1 μM", "value": 40, "unit": "%"},
      {"measurement": "Percent inhibition of TMPRSS2 expression in LNCaP cells cultured in CSS + DHT medium", "setting": "[6]; 5.0 μM", "value": 50, "unit": "%"},
      {"measurement": "Percent inhibition of TMPRSS2 expression in LNCaP cells cultured in complete medium", "setting": "[6]; 0.04 μM", "value": 0, "unit": "%"},
      {"measurement": "Percent inhibition of TMPRSS2 expression in LNCaP cells cultured in complete medium", "setting": "[6]; 0.2 μM", "value": 5, "unit": "%"},
      {"measurement": "Percent inhibition of TMPRSS2 expression in LNCaP cells cultured in complete medium", "setting": "[6]; 1 μM", "value": 40, "unit": "%"},
      {"measurement": "Percent inhibition of TMPRSS2 expression in LNCaP cells cultured in complete medium", "setting": "[6]; 5.0 μM", "value": 48, "unit": "%"},
      {"measurement": "Proliferation (% untreated control)", "setting": "[7]; CSS + DHT medium, 1.34 nM", "value": 83, "unit": "% untreated control"},
      {"measurement": "Proliferation (% untreated control)", "setting": "[7]; CSS + DHT medium, 4.0 nM", "value": 68, "unit": "% untreated control"},
      {"measurement": "Proliferation (% untreated control)", "setting": "[7]; CSS + DHT medium, 13.4 nM", "value": 61, "unit": "% untreated control"},
      {"measurement": "Proliferation (% untreated control)", "setting": "[7]; CSS + DHT medium, 40 nM", "value": 45, "unit": "% untreated control"},
      {"measurement": "Proliferation (% untreated control)", "setting": "[7]; complete medium, 1.34 nM", "value": 98, "unit": "% untreated control"},
      {"measurement": "Proliferation (% untreated control)", "setting": "[7]; complete medium, 4.0 nM", "value": 76, "unit": "% untreated control"},
      {"measurement": "Proliferation (% untreated control)", "setting": "[7]; complete medium, 13.4 nM", "value": 68, "unit": "% untreated control"},
      {"measurement": "Proliferation (% untreated control)", "setting": "[7]; complete medium, 40 nM", "value": 59, "unit": "% untreated control"},
      {"measurement": "proliferation of VCaP cells", "setting": "[7]; complete medium or CSS+1 nM DHT", "value": "reduced proliferation of the cells in a dose dependent compared to the control"},
      {"measurement": "Percent inhibition of 22RV1 cell proliferation", "setting": "[8]; +DHT (1 nM), ASO 1.34 nM", "value": 0, "unit": "%"},
      {"measurement": "Percent inhibition of 22RV1 cell proliferation", "setting": "[8]; +DHT (1 nM), ASO 4.0 nM", "value": 6, "unit": "%"},
      {"measurement": "Percent inhibition of 22RV1 cell proliferation", "setting": "[8]; +DHT (1 nM), ASO 13.4 nM", "value": 32, "unit": "%"},
      {"measurement": "Percent inhibition of 22RV1 cell proliferation", "setting": "[8]; +DHT (1 nM), ASO 40.0 nM", "value": 56, "unit": "%"},
      {"measurement": "22RV1 cell proliferation", "setting": "[8]; with or without 1 nM DHT", "value": "significantly inhibited prostate cancer cell proliferation even in the presence of AR activator, DHT, compared to the control"},
      {"measurement": "Percent inhibition of 22RV1 cell proliferation", "setting": "[8]; −DHT, ASO 1.34 nM", "value": 0, "unit": "%"},
      {"measurement": "Percent inhibition of 22RV1 cell proliferation", "setting": "[8]; −DHT, ASO 4.0 nM", "value": 18, "unit": "%"},
      {"measurement": "Percent inhibition of 22RV1 cell proliferation", "setting": "[8]; −DHT, ASO 13.4 nM", "value": 47, "unit": "%"},
      {"measurement": "Percent inhibition of 22RV1 cell proliferation", "setting": "[8]; −DHT, ASO 40.0 nM", "value": 64, "unit": "%"}
    ]}
  ]
}
